According to ChEMBL document CHEMBL2311352, “Discovery of 4-phenyl-2-phenylaminopyridine based TNIK inhibitors” (Bioorg Med Chem Lett, 2013):

Key:
[1] = molecular target: Homeodomain-interacting protein kinase 3 (Homo sapiens) (UniProt Q9H422); assay: Inhibition of HIPK3 (unknown origin) at 1 uM
[2] = molecular target: Focal adhesion kinase 1 (Homo sapiens) (UniProt Q05397); assay: Inhibition of FAK (unknown origin) at 1 uM
[3] = molecular target: Tyrosine-protein kinase JAK2 (Homo sapiens) (UniProt O60674); assay: Inhibition of JAK2 (unknown origin) at 1 uM
[4] = molecular target: Ephrin type-A receptor 1 (Homo sapiens) (UniProt P21709); assay: Inhibition of EPHA1 (unknown origin) at 1 uM
[5] = molecular target: Inhibitor of nuclear factor kappa-B kinase subunit epsilon (Homo sapiens) (UniProt Q14164); assay: Inhibition of IKKepsilon (unknown origin) at 1 uM
[6] = molecular target: Platelet-derived growth factor receptor beta (Homo sapiens) (UniProt P09619); assay: Inhibition of PDGFRbeta (unknown origin) at 1 uM
[7] = molecular target: Dual specificity mitogen-activated protein kinase kinase 2 (Homo sapiens) (UniProt P36507); assay: Inhibition of MEK2 (unknown origin) at 1 uM
[8] = molecular target: Tyrosine-protein kinase Fes/Fps (Homo sapiens) (UniProt P07332); assay: Inhibition of FES (unknown origin) at 1 uM
[9] = molecular target: CDK9/cyclin T1 (Homo sapiens) (UniProt O60563+P50750); assay: Inhibition of CDK9/cyclin T1 (unknown origin) at 1 uM; type: protein-complex assay
[10] = molecular target: Tyrosine-protein kinase Lyn (Homo sapiens) (UniProt P07948); assay: Inhibition of LYN (unknown origin) at 1 uM
[11] = molecular target: Tyrosine-protein kinase Fgr (Homo sapiens) (UniProt P09769); assay: Inhibition of FGR (unknown origin) at 1 uM
[12] = molecular target: Tyrosine-protein kinase JAK3 (Homo sapiens) (UniProt P52333); assay: Inhibition of JAK3 (unknown origin) at 1 uM
[13] = molecular target: T1, TRAF2 and NCK-interacting protein kinase (Homo sapiens, UniProt Q9UKE5); assay: Competitive binding affinity to TNIK (unknown origin) in presence of ATP
[14] = molecular target: Aurora kinase C (Homo sapiens) (UniProt Q9UQB9); assay: Inhibition of aurora C (unknown origin) at 1 uM
[15] = molecular target: Vascular endothelial growth factor receptor 3 (Homo sapiens) (UniProt P35916); assay: Inhibition of VEGFR3 (unknown origin) at 1 uM
[16] = molecular target: CDK6/cyclin D1 (Homo sapiens) (UniProt P24385+Q00534); assay: Inhibition of CDK6/Cyclin D1 (unknown origin) at 1 uM; type: protein-complex assay
[17] = molecular target: Fibroblast growth factor receptor 3 (Homo sapiens) (UniProt P22607); assay: Inhibition of FGFR3 (unknown origin) at 1 uM
[18] = molecular target: Tyrosine-protein kinase Fer (Homo sapiens) (UniProt P16591); assay: Inhibition of FER (unknown origin) at 1 uM
[19] = molecular target: Tyrosine-protein kinase receptor UFO (Homo sapiens) (UniProt P30530); assay: Inhibition of AXL (unknown origin) at 1 uM
[20] = molecular target: T1, TRAF2 and NCK-interacting protein kinase; assay: Inhibition of TNIK (unknown origin) by ADP glo luminescent assay
[21] = molecular target: Protein kinase C delta type (Homo sapiens) (UniProt Q05655); assay: Inhibition of PKCdelta (unknown origin) at 1 uM
[22] = molecular target: Tyrosine-protein kinase Lck (Homo sapiens) (UniProt P06239); assay: Inhibition of LCK (unknown origin) at 1 uM
[23] = molecular target: Macrophage colony-stimulating factor 1 receptor (Homo sapiens) (UniProt P07333); assay: Inhibition of FMS (unknown origin) at 1 uM
[24] = molecular target: Serine/threonine-protein kinase Chk1 (Homo sapiens) (UniProt O14757); assay: Inhibition of CHK1 (unknown origin) at 1 uM
[25] = molecular target: Tyrosine-protein kinase ABL2 (Homo sapiens) (UniProt P42684); assay: Inhibition of ABL2 (unknown origin) at 1 uM
Caco-2 = assay: Ratio of apparent permeability across basolateral to apical side over apical to basolateral side in human Caco2 cells; type: ADME, cell-based
[26] = molecular target: Platelet-derived growth factor receptor alpha (Homo sapiens) (UniProt P16234); assay: Inhibition of PDGFRalpha (unknown origin) at 1 uM
[27] = molecular target: Fibroblast growth factor receptor 2 (Homo sapiens) (UniProt P21802); assay: Inhibition of FGFR2 (unknown origin) at 1 uM
[28] = Apparent permeability across apical to basolateral side in human Caco2 cells; type: ADME, cell-based; conditions: Caco-2
[29] = molecular target: Angiopoietin-1 receptor (Homo sapiens) (UniProt Q02763); assay: Inhibition of TIE2 (unknown origin) at 1 uM
[30] = molecular target: Ephrin type-A receptor 7 (Homo sapiens) (UniProt Q15375); assay: Inhibition of EPHA7 (unknown origin) at 1 uM
[31] = molecular target: Tyrosine-protein kinase JAK1 (Homo sapiens) (UniProt P23458); assay: Inhibition of JAK1 (unknown origin) at 1 uM
[32] = molecular target: High affinity nerve growth factor receptor (Homo sapiens) (UniProt P04629); assay: Inhibition of TRKA (unknown origin) at 1 uM
[33] = molecular target: Protein-tyrosine kinase 2-beta (Homo sapiens) (UniProt Q14289); assay: Inhibition of PYK2 (unknown origin) at 1 uM
[34] = molecular target: Homeodomain-interacting protein kinase 4 (Homo sapiens) (UniProt Q8NE63); assay: Inhibition of HIPK4 (unknown origin) at 1 uM
[35] = molecular target: Serine/threonine-protein kinase 26 (Homo sapiens) (UniProt Q9P289); assay: Inhibition of MST4 (unknown origin) at 1 uM
[36] = molecular target: Insulin-like growth factor 1 receptor (Homo sapiens) (UniProt P08069); assay: Inhibition of IGF1R (unknown origin) at 1 uM
[37] = molecular target: Proto-oncogene tyrosine-protein kinase Src (Homo sapiens) (UniProt P12931); assay: Inhibition of c-SRC (unknown origin) at 1 uM
[38] = molecular target: Aurora kinase B (Homo sapiens) (UniProt Q96GD4); assay: Inhibition of aurora B (unknown origin) at 1 uM
[39] = molecular target: Protein kinase C epsilon (Homo sapiens) (UniProt Q02156); assay: Inhibition of PKCepsilon (unknown origin) at 1 uM
[40] = molecular target: Tyrosine-protein kinase ABL1 (Homo sapiens) (UniProt P00519); assay: Inhibition of ABL1 (unknown origin) at 1 uM
[41] = molecular target: Tyrosine-protein kinase HCK (Homo sapiens) (UniProt P08631); assay: Inhibition of HCK (unknown origin) at 1 uM
[42] = molecular target: Vascular endothelial growth factor receptor 1 (Homo sapiens) (UniProt P17948); assay: Inhibition of VEGFR1 (unknown origin) at 1 uM
[43] = molecular target: Serine/threonine-protein kinase Chk2 (Homo sapiens) (UniProt O96017); assay: Inhibition of CHK2 (unknown origin) at 1 uM
[44] = molecular target: Proto-oncogene tyrosine-protein kinase receptor Ret (Homo sapiens) (UniProt P07949); assay: Inhibition of RET (unknown origin) at 1 uM

T1 sequence (Q9UKE5 whole entry): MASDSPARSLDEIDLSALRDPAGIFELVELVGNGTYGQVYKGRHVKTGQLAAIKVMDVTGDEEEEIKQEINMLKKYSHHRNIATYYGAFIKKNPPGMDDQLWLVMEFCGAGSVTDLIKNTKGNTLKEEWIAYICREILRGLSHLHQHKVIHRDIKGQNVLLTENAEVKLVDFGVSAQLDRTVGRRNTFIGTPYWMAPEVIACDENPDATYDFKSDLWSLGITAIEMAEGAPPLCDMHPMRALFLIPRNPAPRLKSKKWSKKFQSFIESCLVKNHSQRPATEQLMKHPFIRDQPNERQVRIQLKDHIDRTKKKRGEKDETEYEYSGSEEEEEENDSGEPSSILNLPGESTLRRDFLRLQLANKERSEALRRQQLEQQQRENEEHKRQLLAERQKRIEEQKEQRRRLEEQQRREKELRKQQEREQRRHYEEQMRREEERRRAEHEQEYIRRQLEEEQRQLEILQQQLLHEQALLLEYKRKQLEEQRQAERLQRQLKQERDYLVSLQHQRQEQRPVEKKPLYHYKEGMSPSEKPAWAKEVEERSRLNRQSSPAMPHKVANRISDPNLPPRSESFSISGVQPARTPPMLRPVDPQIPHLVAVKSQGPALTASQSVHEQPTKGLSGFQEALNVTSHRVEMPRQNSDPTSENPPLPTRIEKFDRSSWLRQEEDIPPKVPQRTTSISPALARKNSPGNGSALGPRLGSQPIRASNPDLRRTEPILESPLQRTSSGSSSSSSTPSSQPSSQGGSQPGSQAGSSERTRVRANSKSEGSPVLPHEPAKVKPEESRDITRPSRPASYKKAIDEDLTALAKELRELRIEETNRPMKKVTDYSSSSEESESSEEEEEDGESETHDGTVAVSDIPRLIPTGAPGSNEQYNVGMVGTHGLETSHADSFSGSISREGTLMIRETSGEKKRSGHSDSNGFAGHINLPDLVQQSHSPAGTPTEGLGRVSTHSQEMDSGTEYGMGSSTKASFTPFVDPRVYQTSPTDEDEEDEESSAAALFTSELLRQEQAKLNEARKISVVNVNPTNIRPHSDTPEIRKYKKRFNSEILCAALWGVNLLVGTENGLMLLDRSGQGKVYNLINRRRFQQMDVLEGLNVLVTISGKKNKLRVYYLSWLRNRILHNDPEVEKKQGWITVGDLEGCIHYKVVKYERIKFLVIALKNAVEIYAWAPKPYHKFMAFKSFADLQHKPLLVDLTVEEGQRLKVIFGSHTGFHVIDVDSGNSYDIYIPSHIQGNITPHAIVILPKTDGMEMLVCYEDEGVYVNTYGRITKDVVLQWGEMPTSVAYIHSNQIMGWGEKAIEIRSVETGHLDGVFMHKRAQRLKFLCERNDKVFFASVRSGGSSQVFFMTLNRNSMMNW
Sequence of Proto-oncogene tyrosine-protein kinase Src (Homo sapiens) (P12931 2-536 limits assumed): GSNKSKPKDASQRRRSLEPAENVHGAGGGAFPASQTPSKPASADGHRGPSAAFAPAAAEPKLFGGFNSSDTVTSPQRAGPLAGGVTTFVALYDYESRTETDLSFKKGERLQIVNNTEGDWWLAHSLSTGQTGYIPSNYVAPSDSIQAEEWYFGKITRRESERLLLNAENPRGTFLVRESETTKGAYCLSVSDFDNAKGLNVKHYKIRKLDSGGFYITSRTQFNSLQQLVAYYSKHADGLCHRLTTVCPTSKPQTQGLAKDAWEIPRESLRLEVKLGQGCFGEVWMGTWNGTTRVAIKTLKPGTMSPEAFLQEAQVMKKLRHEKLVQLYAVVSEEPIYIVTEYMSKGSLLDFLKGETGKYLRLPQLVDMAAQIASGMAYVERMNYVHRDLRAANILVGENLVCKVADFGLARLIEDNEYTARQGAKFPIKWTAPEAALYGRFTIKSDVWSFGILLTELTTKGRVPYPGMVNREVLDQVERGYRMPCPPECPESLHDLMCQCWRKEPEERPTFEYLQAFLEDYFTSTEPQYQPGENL
Sequence of Serine/threonine-protein kinase Chk2 (Homo sapiens) (O96017 whole entry): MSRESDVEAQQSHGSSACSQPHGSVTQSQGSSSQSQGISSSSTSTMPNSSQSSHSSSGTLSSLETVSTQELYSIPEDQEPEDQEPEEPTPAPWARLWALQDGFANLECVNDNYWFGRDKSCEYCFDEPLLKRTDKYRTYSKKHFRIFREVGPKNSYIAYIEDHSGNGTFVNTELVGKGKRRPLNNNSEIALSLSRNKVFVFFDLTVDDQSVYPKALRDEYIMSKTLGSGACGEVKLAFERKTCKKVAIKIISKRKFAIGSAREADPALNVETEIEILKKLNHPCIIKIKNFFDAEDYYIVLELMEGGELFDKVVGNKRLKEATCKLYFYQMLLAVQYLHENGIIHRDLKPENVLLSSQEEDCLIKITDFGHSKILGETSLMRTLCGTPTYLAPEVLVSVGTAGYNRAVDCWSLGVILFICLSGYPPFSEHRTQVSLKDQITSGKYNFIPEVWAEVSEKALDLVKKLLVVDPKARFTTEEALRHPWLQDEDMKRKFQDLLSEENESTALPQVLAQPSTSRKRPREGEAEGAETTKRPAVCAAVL
Sequence of Tyrosine-protein kinase JAK1 (Homo sapiens) (P23458 whole entry): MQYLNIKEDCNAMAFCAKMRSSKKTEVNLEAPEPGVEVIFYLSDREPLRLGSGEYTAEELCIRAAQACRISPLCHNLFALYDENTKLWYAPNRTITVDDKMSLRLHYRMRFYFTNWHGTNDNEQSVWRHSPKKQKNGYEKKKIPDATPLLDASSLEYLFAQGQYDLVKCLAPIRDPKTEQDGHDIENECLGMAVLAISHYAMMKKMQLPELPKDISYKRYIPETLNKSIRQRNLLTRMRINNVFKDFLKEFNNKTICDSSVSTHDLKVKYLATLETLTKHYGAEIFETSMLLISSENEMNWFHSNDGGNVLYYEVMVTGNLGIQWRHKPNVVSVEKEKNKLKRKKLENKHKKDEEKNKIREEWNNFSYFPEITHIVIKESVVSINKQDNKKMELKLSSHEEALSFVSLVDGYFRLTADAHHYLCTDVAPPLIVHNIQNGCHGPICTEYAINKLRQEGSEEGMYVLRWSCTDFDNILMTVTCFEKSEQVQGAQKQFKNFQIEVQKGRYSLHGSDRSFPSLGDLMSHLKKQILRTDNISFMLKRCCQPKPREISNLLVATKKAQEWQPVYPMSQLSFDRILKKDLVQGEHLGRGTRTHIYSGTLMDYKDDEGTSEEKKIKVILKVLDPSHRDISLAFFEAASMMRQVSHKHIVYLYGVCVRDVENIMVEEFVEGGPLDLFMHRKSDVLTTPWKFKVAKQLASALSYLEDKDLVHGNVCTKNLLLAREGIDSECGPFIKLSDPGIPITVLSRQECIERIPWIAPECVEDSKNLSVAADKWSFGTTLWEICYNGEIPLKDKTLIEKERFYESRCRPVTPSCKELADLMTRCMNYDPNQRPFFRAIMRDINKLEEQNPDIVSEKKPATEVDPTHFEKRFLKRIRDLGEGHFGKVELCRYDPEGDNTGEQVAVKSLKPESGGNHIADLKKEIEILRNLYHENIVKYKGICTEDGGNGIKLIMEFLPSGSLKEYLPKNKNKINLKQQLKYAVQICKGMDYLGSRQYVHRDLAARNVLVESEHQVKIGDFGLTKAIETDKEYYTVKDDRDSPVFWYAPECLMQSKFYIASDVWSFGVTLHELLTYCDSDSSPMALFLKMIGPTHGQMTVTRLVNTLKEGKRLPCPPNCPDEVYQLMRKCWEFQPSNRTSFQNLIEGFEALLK
Sequence of Serine/threonine-protein kinase Chk1 (Homo sapiens) (O14757 whole entry): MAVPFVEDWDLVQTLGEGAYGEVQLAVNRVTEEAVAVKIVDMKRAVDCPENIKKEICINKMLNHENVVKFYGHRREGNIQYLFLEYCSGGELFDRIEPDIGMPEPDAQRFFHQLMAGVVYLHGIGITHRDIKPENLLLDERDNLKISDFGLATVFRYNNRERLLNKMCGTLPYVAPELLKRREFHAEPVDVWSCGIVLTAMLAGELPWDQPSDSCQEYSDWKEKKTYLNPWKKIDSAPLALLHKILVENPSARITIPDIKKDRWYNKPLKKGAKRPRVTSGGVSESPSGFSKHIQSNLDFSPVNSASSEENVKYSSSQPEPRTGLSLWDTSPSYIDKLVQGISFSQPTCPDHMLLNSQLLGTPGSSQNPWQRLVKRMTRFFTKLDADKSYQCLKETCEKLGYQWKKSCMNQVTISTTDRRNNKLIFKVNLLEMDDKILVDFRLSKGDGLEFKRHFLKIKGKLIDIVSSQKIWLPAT
Sequence of Protein kinase C epsilon (Homo sapiens) (Q02156 whole entry, looked up): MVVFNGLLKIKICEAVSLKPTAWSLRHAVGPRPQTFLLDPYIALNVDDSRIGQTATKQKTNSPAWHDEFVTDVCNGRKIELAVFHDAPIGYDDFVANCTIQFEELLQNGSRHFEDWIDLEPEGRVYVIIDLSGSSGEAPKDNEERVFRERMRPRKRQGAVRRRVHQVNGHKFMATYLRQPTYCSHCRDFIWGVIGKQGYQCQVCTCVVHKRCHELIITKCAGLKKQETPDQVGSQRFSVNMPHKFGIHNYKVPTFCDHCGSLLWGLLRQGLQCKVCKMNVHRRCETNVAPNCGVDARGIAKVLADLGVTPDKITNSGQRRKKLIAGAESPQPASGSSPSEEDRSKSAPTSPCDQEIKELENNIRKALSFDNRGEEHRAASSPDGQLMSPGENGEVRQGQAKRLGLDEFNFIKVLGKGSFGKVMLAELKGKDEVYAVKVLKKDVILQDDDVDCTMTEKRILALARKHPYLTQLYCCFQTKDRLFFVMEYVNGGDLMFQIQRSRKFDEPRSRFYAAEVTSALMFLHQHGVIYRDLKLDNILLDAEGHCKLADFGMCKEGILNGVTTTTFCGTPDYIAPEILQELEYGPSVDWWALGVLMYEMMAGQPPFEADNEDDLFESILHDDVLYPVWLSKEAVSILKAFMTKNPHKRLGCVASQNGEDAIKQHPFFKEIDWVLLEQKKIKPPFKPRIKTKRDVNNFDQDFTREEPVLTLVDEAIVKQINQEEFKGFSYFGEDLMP

inhibition [1]: > 80% | inhibition [2]: 50% | inhibition [3]: > 95% | inhibition [4]: 50% | inhibition [5]: > 95% | inhibition [6]: > 80% | inhibition [7]: > 80% | inhibition [8]: > 80% | inhibition [9]: > 50% | inhibition [10]: > 80% | inhibition [11]: 50% | inhibition [12]: > 95% | Kd [13]: 86 nM | inhibition [14]: > 80% | inhibition [15]: > 95% | inhibition [16]: > 80% | inhibition [17]: > 95% | inhibition [18]: > 80% | inhibition [19]: > 80% | IC50 [20]: 65 nM | inhibition [21]: 50% | inhibition [22]: > 80% | inhibition [23]: > 80% | inhibition [24]: > 80% | inhibition [25]: > 80% | Ratio (Caco-2): 0.96 | inhibition [26]: > 80% | inhibition [27]: > 95% | Papp A→B [28]: 8 ×10⁻⁶ cm/s | inhibition [29]: 50% | inhibition [30]: 50% | inhibition [31]: > 80% | inhibition [32]: > 80% | inhibition [33]: 50% | inhibition [34]: > 80% | inhibition [35]: 50% | inhibition [36]: > 80% | inhibition [37]: > 80% | inhibition [38]: > 80% | inhibition [39]: 50% | inhibition [40]: > 80% | inhibition [41]: 50% | inhibition [42]: > 95% | inhibition [43]: > 80% | inhibition [44]: > 95%
SMILES: COc1cc(Nc2ncc(Cl)c(-c3cccc(CC#N)c3)n2)ccc1N1CCN(C)CC1
